Results: patent US7951382B2, “Methods for treatment of type 2 diabetes” (American Type Culture Collection, priority 2006, dated 2011)
Entries after “also recorded” stand apart in the source; their conditions may differ.

Columns and labels:
[1] = tested on: 12 Kinases (kinases involved in insulin receptor signaling pathways); assay: NovaScreen ProfilerPro kinase panel / screen of 59 receptors and enzymes at 1 μM; assay type: biochemical; conditions: D3 peptide 1 μM, preliminary results
Procedure: (§1) Kinase assays were performed using the ProfilerPro kinase panel kit available from NovaScreen and were validated using the KinaseProfiler enzyme panel available from Millipore.

[2] = tested on: 12 Kinases (kinases involved in insulin receptor signaling pathways); assay: Millipore KinaseProfiler enzyme panel; assay type: biochemical; conditions: D3 peptide 0.1 uM and 1 uM, same 12 kinases
Procedure: as §1

[3] = tested on: STZ-induced diabetic C57BL/6 mice; assay: Multiple low dose streptozotocin (STZ)-induced murine model of Diabetes, efficacy of D3 peptide; assay type: in vivo, male C57BL/6 mice; conditions: for mortality / survival during the course of the study: experiment 1, to day 36, FIG. 15
Procedure: Peptide treatment also delayed the onset of Diabetes (mean blood glucose levels≧300 mg/dL) by approximately 14 days, and reduced peak BG levels by 40% (p<0.01) in treated animals. This naturally occurring peptide may represent a safer alternative to small molecule kinase inhibitors for the control of IDDM and associated complications.
Streptozotocin (Streptozocin, STZ, Zanosar) is a naturally occurring glucosamine-nitrosourea compound that is toxic to insulin producing beta cells in the pancreas. This alkylating agent bears enough similarity to the molecular structure of glucose to be readily transported into beta cells by the highly abundant glucose GLU2 glucose transporter protein. Once inside the cell STZ causes damage to the DNA, resulting in a loss of cellular function.
Twenty five male C57BL/6 mice aged approximately 6 weeks were randomized into 3 groups of 10, 10 and 5 animals. Beginning on day −6, non-fasting blood glucose (BG) levels for all animals were determined twice weekly using an Ascencia Contour blood glucose reader (Beyer). […] Groups 1 and 3 were intraperitoneally administered 200 μl sterile water alone. Injections continued in a similar fashion every 3 days for the duration of the experiment. Beginning on day 0, Groups 2 and 3 also received 50 mg/kg of STZ in 200 μl of sterile water via the intraperitoneal route for 5 consecutive days. Group 1 animals received a mock intraperitoneal injection of 200 μl of sterile water during the same period (see Table 17). Animals were allowed access to food and water ad libitum and this treatment schedule was followed until day 36.
In experiment 1, animals were fed normal mouse chow for the duration of the experiment and a fresh vial of STZ was used. Blood glucose measurements for each individual animal were recorded twice weekly for the duration of the experiment. The blood glucose levels in the non diabetic control animals remained stable at approximately 150 mg/dl. However, immediately following the administration of STZ to the two experimental groups, blood glucose levels increased steadily over time and reached a maximum at approximately day 15. No difference in blood glucose levels were observed between D3 treated and untreated STZ-induced animals.
For the duration of the experiment, the mean blood glucose level of normal control animals was approximately 150 mg/dl. For the purposes of this study, a blood glucose reading in STZ-induced animals more than 2-fold higher than normal (i.e. ≧300 mg/dl) was considered to indicate a diabetic animal. Using this criterion, the incidence and time to onset of diabetes in the treated and untreated STZ groups was determined. […] For both STZ groups, the onset of Diabetes began as early as day 4 post STZ administration. All of the untreated STZ animals were classed as diabetic by day 10.
In experiment 2, animals were fed a high carbohydrate diet (˜50% sucrose) for the duration of the experiment. An older stock vial of STZ was used. Blood glucose measurements for each individual animal were recorded twice weekly for the duration of the experiment. As expected, the blood glucose levels in the non diabetic control animals remained below 150 mg/dl. […] This trend was maintained for the entire duration of the experiment.
For the duration of the experiment, the mean blood glucose level of normal control animals was approximately 150 mg/dl. For the purposes of this study, a blood glucose reading in STZ-induced animals more than 2-fold higher than normal (i.e. ≧300 mg/dl) was considered to indicate a diabetic animal. Using this criterion, the incidence and time to onset of Diabetes in the treated and untreated STZ groups was determined. […] For the untreated STZ group, Diabetes onset began as early as day 8 post STZ administration, and 100% of animals were diabetic by day 18. […] By day 36 only 70% of animals in the D3 treated group were classified as diabetic. […]

[4] = molecular target: kinases (Homo sapiens, UniProt P15056, V600E); assay: Invitrogen SelectScreen biochemical kinase profiling, Z'-LYTE assay; conditions: kinase BRAF V599E
Chain of kinases (P15056 whole entry V600E): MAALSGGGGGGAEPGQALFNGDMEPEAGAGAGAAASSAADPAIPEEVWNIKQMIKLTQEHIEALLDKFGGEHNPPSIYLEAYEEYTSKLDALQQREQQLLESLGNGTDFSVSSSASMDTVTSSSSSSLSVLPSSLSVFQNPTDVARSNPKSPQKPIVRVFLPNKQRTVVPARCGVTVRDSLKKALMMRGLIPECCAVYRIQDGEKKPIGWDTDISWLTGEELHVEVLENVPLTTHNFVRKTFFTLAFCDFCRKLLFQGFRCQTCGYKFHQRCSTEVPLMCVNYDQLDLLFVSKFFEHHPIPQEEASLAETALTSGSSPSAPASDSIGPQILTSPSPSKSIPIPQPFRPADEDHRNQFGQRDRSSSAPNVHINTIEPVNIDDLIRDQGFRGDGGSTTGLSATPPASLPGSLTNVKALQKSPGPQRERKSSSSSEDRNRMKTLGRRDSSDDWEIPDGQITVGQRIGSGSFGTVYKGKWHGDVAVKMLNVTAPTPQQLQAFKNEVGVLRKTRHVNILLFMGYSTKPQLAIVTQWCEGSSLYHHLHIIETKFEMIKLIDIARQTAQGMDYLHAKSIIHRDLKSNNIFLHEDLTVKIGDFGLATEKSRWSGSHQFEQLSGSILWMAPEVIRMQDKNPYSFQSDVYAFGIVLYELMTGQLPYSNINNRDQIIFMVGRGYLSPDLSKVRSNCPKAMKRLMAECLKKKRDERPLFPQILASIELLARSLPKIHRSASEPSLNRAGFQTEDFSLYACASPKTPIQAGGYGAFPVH
Text: The Z′-LYTE® biochemical assay employs a fluorescence-based, coupled-enzyme format and is based on the differential sensitivity of phosphorylated and non-phosphorylated peptides to proteolytic cleavage. The peptide substrate is labeled with two fluorophores—one at each end—that make up a FRET pair. In the primary reaction, the kinase transfers the gamma-phosphate of ATP to a single tyrosine, serine or threonine residue in a synthetic FRET-peptide. In the secondary reaction, a site-specific protease recognizes and cleaves non-phosphorylated FRET-peptides. Phosphorylation of FRET-peptides suppresses cleavage by the Development Reagent. Cleavage disrupts FRET between the donor (i.e., coumarin) and acceptor (i.e., fluorescein) fluorophores on the FRET-peptide, whereas uncleaved, phosphorylated FRET-peptides maintain FRET.
Both cleaved and uncleaved FRET-peptides contribute to the fluorescence signals and therefore to the Emission Ratio. The extent of phosphorylation of the FRET-peptide can be calculated from the Emission Ratio.
Test Compounds are screened in 1% DMSO (final) in the well. […] All ATP Solutions are diluted to a 4× working concentration in Kinase Buffer (50 mM HEPES pH 7.5, 0.01% BRIJ-35, 10 mM MgCl2, 1 mM EGTA). ATP Km apparent is previously determined using a Z′-LYTE® assay.
This control yields 100% cleaved peptide in the Development Reaction. […]

[5] = experiment 1, normal mouse chow, fresh vial of STZ
[6] = experiment 2, high carbohydrate diet

SGRPPMIVWFNRPFLIAVSHTHGQTILFMAKVINPVGA [D3 peptide, SGRPPMIVWFNRPFLIAVSHTHGQTILFMAKVINPVGA]
inhibition of kinases of the panel [1]: specific inhibition activities to 7 kinases | inhibition of kinases of the panel (confirmation) [2]: specific inhibition activity on 4 out of 7 kinases | reduction of peak BG levels ([3]; 36-day prophylactic study, STZ-induced male C57BL/6 mice, 1 mg/kg every 3 days, p<0.01): 40% | delay of the onset of Diabetes (mean blood glucose levels≧300 mg/dL) ([3]; 36-day prophylactic study, STZ-induced male C57BL/6 mice, 1 mg/kg of D3 peptide every 3 days): approximately 14 days | time to onset or rate of disease compared to untreated diabetic controls ([3]; FIG. 14, STZ treated animals (experiment 1)): No significant differences | blood glucose levels, D3 treated versus untreated STZ-induced animals [3, 5]: No difference | first signs of Diabetes (blood glucose ≧300 mg/dl), day post STZ administration [3, 5]: 4 days | rate of disease progression (slope of the graph) versus untreated STZ group [3, 5]: essentially similar | time to establish Diabetes in 100% of animals [3, 5]: 15 days | mortality / survival during the course of the study [3]: increases survival | mortality / survival during the course of the study ([3]; listed as D3): no mortality was observed | animals classified as diabetic by day 36 [3, 6]: 70% | deaths from diabetic complications or toxic events related to peptide or STZ treatment [3, 6]: No animals succumbed to diabetic complications or experienced any toxic events | delay of first signs of diabetes versus untreated animals [3, 6]: four | rate of disease progression (slope of the graph) [3, 6]: much less pronounced | mean blood glucose levels, D3 treated versus untreated STZ-induced animals ([3]; experiment 2, high carbohydrate diet (~50% sucrose), older stock vial of STZ, 36 days, FIG. 16): higher than those observed in diabetic animals treated with D3 peptide; also recorded: marked reduction | day on which significant differences (p≦0.05) in mean blood glucose versus untreated diabetic animals were first observed ([3]; experiment 2, high carbohydrate diet, D3 peptide every 3 days): 10 days | % Inhibition mean [4]: 99.79%
